Test system: Plasmodium berghei
Experiment: Luciferase/luciferin-expressing antifolate-resistant parasites were used to infect a culture of HepG2 cells that were pre-incubated with compounds. Infected hepatocytes emit light due to the luciferase reaction. Assay results are presented as the percent inhibition of light emission compared to control. […]
Type: functional
Details: sporozoite; for IC90: read-out: LUCIFERASE INFECTION ASSAY - IC90

| SMILES | IC90 [µM] | also measured |
| --- | --- | --- |
| Cc1nc(C(=O)NNC(=O)c2ccc(Cl)cc2)cs1 | > 11.2 | IC50 (PBLUC_HILL_SLOPE 2.52, PBLUC_R_SQUARED 0.734, read-out: LUCIFERASE INFECTION ASSAY - IC50): > 11.2 µM |
| O=C(Nc1ccc(F)cc1F)c1cc(Cl)cc(Cl)c1O | > 10.4 | IC50 (PBLUC_HILL_SLOPE 2.53, PBLUC_R_SQUARED 0.435, read-out: LUCIFERASE INFECTION ASSAY - IC50): 4.75 µM |
| NC1=CC(=O)c2ccccc2C1=O | > 19.1 | IC50 (PBLUC_HILL_SLOPE 2.49, PBLUC_R_SQUARED 0.187, read-out: LUCIFERASE INFECTION ASSAY - IC50): 12 µM |
| CCC(C)(C)c1ccc(Oc2ccc(NC(=O)COC(=O)c3ccc(Cl)c(S(N)(=O)=O)c3)cc2)cc1 | > 10 | IC50 (PBLUC_HILL_SLOPE 2.55, PBLUC_R_SQUARED 0.138, read-out: LUCIFERASE INFECTION ASSAY - IC50): 5.78 µM |
| COc1cccc(-c2nc3ccnc(NCCc4ccccc4)c3[nH]2)c1 | 7.63 | IC50 (PBLUC_HILL_SLOPE 2.45, PBLUC_R_SQUARED 0.513, read-out: LUCIFERASE INFECTION ASSAY - IC50): 3.11 µM |
| CCOc1cc2c(cc1/C=C/C(=O)c1ccc(C)o1)OC(C)C2 (stereo not given) | > 10 | IC50 (PBLUC_HILL_SLOPE 2.56, PBLUC_R_SQUARED 0.238, read-out: LUCIFERASE INFECTION ASSAY - IC50): 9.29 µM |
| COc1cc2[nH]c(CN3CCN(c4ncccn4)CC3)nc(=O)c2cc1OC | > 10 | IC50 (PBLUC_HILL_SLOPE 2.49, PBLUC_R_SQUARED 0.0972, read-out: LUCIFERASE INFECTION ASSAY - IC50): 7.74 µM |
| Cc1nn2c3ccccc3n(C)c2c1C(=O)N/N=C/c1ccc([N+](=O)[O-])o1 | > 10 | IC50 (PBLUC_HILL_SLOPE 2.48, PBLUC_R_SQUARED 0.513, read-out: LUCIFERASE INFECTION ASSAY - IC50): 5.52 µM |
| O=C(c1cnc(Nc2cccc(Cc3ccccc3)c2)[nH]1)c1ccccc1O | > 8.93 | IC50 (PBLUC_HILL_SLOPE 2.54, PBLUC_R_SQUARED 0.464, read-out: LUCIFERASE INFECTION ASSAY - IC50): 6.19 µM |
| Cc1ccc(NNC(=O)c2cnc3c(c2)c(C)nn3C)cc1Cl | > 10 | IC50 (PBLUC_HILL_SLOPE 2.54, PBLUC_R_SQUARED 0.422, read-out: LUCIFERASE INFECTION ASSAY - IC50): 7.03 µM |
| Nc1nc(-c2c[nH]c3ccccc23)c(-c2ccccc2)s1 | > 10 | IC50 (PBLUC_HILL_SLOPE 2.51, PBLUC_R_SQUARED 0.619, read-out: LUCIFERASE INFECTION ASSAY - IC50): 7.04 µM |
| O=C(CN1CC=C(c2c[nH]c3ccccc23)CC1)Nc1cccc(F)c1 | > 10 | IC50 (PBLUC_HILL_SLOPE 2.56, PBLUC_R_SQUARED 0.252, read-out: LUCIFERASE INFECTION ASSAY - IC50): 6.56 µM |
| COc1ccc(C2CC(C)=NN2c2nc(-c3ccc(F)cc3)cs2)cc1OC (stereo not given) | > 8.3 | IC50 (PBLUC_HILL_SLOPE 2.46, PBLUC_R_SQUARED 0.655, read-out: LUCIFERASE INFECTION ASSAY - IC50): 4.62 µM |
| CC1N(C)c2cc(NC(=O)/C=C/c3ccc(F)cc3)ccc2C1(C)C (stereo not given) | > 10 | IC50 (PBLUC_HILL_SLOPE 2.49, PBLUC_R_SQUARED 0.1, read-out: LUCIFERASE INFECTION ASSAY - IC50): 5.32 µM |
| N=C(Nc1cc(Cl)cc(Cl)c1)Nc1ncc(C(=O)c2ccccc2O)cn1 | > 10 | IC50 (PBLUC_HILL_SLOPE 2.46, PBLUC_R_SQUARED 0.348, read-out: LUCIFERASE INFECTION ASSAY - IC50): 5.29 µM |
| Nc1nccnc1C(=O)Nc1ncc(Cc2cc(Cl)cc(Cl)c2)s1 | 7.09 | IC50 (PBLUC_HILL_SLOPE 2.47, PBLUC_R_SQUARED 0.427, read-out: LUCIFERASE INFECTION ASSAY - IC50): 2.91 µM |
| CC(C)NC(=O)NCc1ccc(C(=O)OCC(=O)C(C#N)=C2Nc3ccccc3N2)cc1 | 6.88 | IC50 (PBLUC_HILL_SLOPE 2.52, PBLUC_R_SQUARED 0.605, read-out: LUCIFERASE INFECTION ASSAY - IC50): 2.88 µM |
| CCOC(=O)c1c(N)sc(Sc2ccccc2[N+](=O)[O-])c1-c1ccccc1 | > 10 | IC50 (PBLUC_HILL_SLOPE 2.49, PBLUC_R_SQUARED 0.748, read-out: LUCIFERASE INFECTION ASSAY - IC50): 4.39 µM |
| Cc1nc(COc2ccc(Cl)cc2)sc1C(=O)OC(C)C(=O)N1CCCC1 (stereo not given) | > 10 | IC50 (PBLUC_HILL_SLOPE 2.47, PBLUC_R_SQUARED 0.699, read-out: LUCIFERASE INFECTION ASSAY - IC50): 4.52 µM |
| CCC(C)(C)c1ccc(Oc2ccc(NC(=O)COC(=O)CNC(=O)c3ccc(C)c(C)c3)cc2)cc1 | > 10 | IC50 (PBLUC_HILL_SLOPE 2.53, PBLUC_R_SQUARED 0.335, read-out: LUCIFERASE INFECTION ASSAY - IC50): 6.55 µM |

| SMILES | IC90 [µM] | also measured |
| --- | --- | --- |
| CCN(Cc1ccc(Cl)s1)C(=O)c1ccc(NC(=O)c2ccco2)cc1 | > 10 | IC50 (PBLUC_HILL_SLOPE 2.47, PBLUC_R_SQUARED 0.568, read-out: LUCIFERASE INFECTION ASSAY - IC50): 5.55 µM |
| CC(=O)N1CCc2cc(NC(=O)C3CCN(c4ccc(C#N)cn4)CC3)ccc21 | > 10 | IC50 (PBLUC_HILL_SLOPE 2.56, PBLUC_R_SQUARED 0.25, read-out: LUCIFERASE INFECTION ASSAY - IC50): > 10 µM |
| N#C/C(=C\c1cn(Cc2ccccc2)nc1-c1cccnc1)c1nc2ccccc2[nH]1 | 8.82 | IC50 (PBLUC_HILL_SLOPE 2.49, PBLUC_R_SQUARED 0.607, read-out: LUCIFERASE INFECTION ASSAY - IC50): 3.65 µM |
| O=c1cc(N2CCCN(c3ccc(C(F)(F)F)cn3)CC2)nc2ccccn12 | > 10 | IC50 (PBLUC_HILL_SLOPE 2.47, PBLUC_R_SQUARED 0.397, read-out: LUCIFERASE INFECTION ASSAY - IC50): 5.84 µM |
| CCC1=C(C(=O)OC)C(c2c(F)cccc2F)NC(=S)N1c1ccc2c(c1)OCCO2 (stereo not given) | > 10 | IC50 (PBLUC_HILL_SLOPE 2.5, PBLUC_R_SQUARED 0.683, read-out: LUCIFERASE INFECTION ASSAY - IC50): 6.87 µM |
| CCn1cc(C(=O)OC)c(=O)c2cc(C(F)(F)F)ccc21 | > 11 | IC50 (PBLUC_HILL_SLOPE 2.56, PBLUC_R_SQUARED 0.477, read-out: LUCIFERASE INFECTION ASSAY - IC50): 5.72 µM |
| Cc1ccc(C(=O)Nc2nc3ccccc3[nH]2)cc1NC(=O)c1ccco1 | > 10 | IC50 (PBLUC_HILL_SLOPE 2.56, PBLUC_R_SQUARED 0.483, read-out: LUCIFERASE INFECTION ASSAY - IC50): 4.68 µM |
| NC(=O)c1cccc(-c2cn3c(-c4ccc(F)c(Cl)c4)cnc3cn2)c1 | > 9 | IC50 (PBLUC_HILL_SLOPE 2.55, PBLUC_R_SQUARED 0.396, read-out: LUCIFERASE INFECTION ASSAY - IC50): 5.28 µM |
| C=CCn1c(-c2ccc(Cl)cc2Cl)csc1=Nc1ccc(NC(C)=O)cc1 | 6.44 | IC50 (PBLUC_HILL_SLOPE 2.47, PBLUC_R_SQUARED 0.472, read-out: LUCIFERASE INFECTION ASSAY - IC50): 2.64 µM |
| O=C(Nc1cc(Cl)sc1Cl)Oc1cccnc1 | 10.6 | IC50 (PBLUC_HILL_SLOPE 2.49, PBLUC_R_SQUARED 0.591, read-out: LUCIFERASE INFECTION ASSAY - IC50): 4.41 µM |
| NS(=O)(=O)c1cc(C(=O)OCC(=O)Nc2ccc(OC(F)F)cc2)ccc1Cl | > 10 | IC50 (PBLUC_HILL_SLOPE 2.5, PBLUC_R_SQUARED 0.514, read-out: LUCIFERASE INFECTION ASSAY - IC50): 6.64 µM |
| Cc1ccc2cc(C)c(N/N=C/c3c(C)nn(-c4ccccc4)c3Cl)nc2c1 | 9.17 | IC50 (PBLUC_HILL_SLOPE 2.56, PBLUC_R_SQUARED 0.451, read-out: LUCIFERASE INFECTION ASSAY - IC50): 3.89 µM |
| CC(C)c1ccc(NC(=O)N2[C@@H]3CC[C@@H](C3)[C@H]2c2nc3c(OCC4CC4)cccc3[nH]2)cc1 | > 10 | IC50 (PBLUC_HILL_SLOPE 2.47, PBLUC_R_SQUARED 0.452, read-out: LUCIFERASE INFECTION ASSAY - IC50): 6.2 µM |
| COc1ccc(OC)c(/C=c2\s/c(=C(/C#N)c3nnc4n3CCCCC4)n(-c3ccccc3)c2=O)c1 | > 10 | IC50 (PBLUC_HILL_SLOPE 2.48, PBLUC_R_SQUARED 0.654, read-out: LUCIFERASE INFECTION ASSAY - IC50): 4.74 µM |
| Cc1cc(CN(Cc2ccc(C(=O)NC3CC3)cc2)Cc2ccco2)no1 | > 10 | IC50 (PBLUC_HILL_SLOPE 2.47, PBLUC_R_SQUARED 0.284, read-out: LUCIFERASE INFECTION ASSAY - IC50): 5.89 µM |
| CCCCOCCCNC(=O)c1cc2ccccc2cc1OC | > 10 | IC50 (PBLUC_HILL_SLOPE 2.53, PBLUC_R_SQUARED 0.451, read-out: LUCIFERASE INFECTION ASSAY - IC50): 6.56 µM |
| S=C1CCc2ccccc2N1Cc1ccccc1 | > 13 | IC50 (PBLUC_HILL_SLOPE 2.45, PBLUC_R_SQUARED 0.245, read-out: LUCIFERASE INFECTION ASSAY - IC50): > 13 µM |
| COc1ccc(S(=O)(=O)Nc2cc(Sc3ccc(C)cc3)c(O)c3ccccc23)cc1 | > 10 | IC50 (PBLUC_HILL_SLOPE 2.53, PBLUC_R_SQUARED 0.459, read-out: LUCIFERASE INFECTION ASSAY - IC50): 6.71 µM |
| CCOc1ccc(N(C)S(=O)(=O)c2ccc(C)c(C(=O)Nc3nc4ccccc4[nH]3)c2)cc1 | 3.87 | IC50 (PBLUC_HILL_SLOPE 2.47, PBLUC_R_SQUARED 0.24, read-out: LUCIFERASE INFECTION ASSAY - IC50): 1.59 µM |
| C/C(=N\N=C(N)N)c1ccc(Cl)c(Cl)c1 | > 10 | IC50 (PBLUC_HILL_SLOPE 2.49, PBLUC_R_SQUARED 0.254, read-out: LUCIFERASE INFECTION ASSAY - IC50): 4.31 µM |

From ChEMBL document CHEMBL4483862, “Open-source discovery of chemical leads for next-generation chemoprotective antimalarials” (2018)
